Row | Compound | logP
1 | CCCOc1ccc([N+](=O)[O-])c(S(C)(=O)=O)c1 | 1.1
2 | Oc1cc(Cl)c(Cl)c(Cl)c1Cl | 4.21
3 | NC(=O)c1ccccc1NC(=O)C(Cl)Cl | 1.68
4 | CC(C)c1ccc(O)cc1 | 2.9
5 | CCC(=O)Nc1ccccc1 | 1.61
6 | N#CCc1cccs1 | 1.26
7 | CCCCCSCS(=O)CC(CO)NC(=O)C=Cc1c(C)[nH]c(=O)[nH]c1=O (centres undefined) | 0.6
8 | N#Cc1ccc(CC(=O)Nc2ccccc2)cc1 | 2.82
9 | CN(C)C(N(C)C)=S(I)c1cc(Cl)c(Cl)cc1Cl (centres undefined) | 0.68
10 | CNc1nc2ccccc2o1 | 1.82
11 | Oc1ccc(Cn2cc[nH]c2=S)cc1F | 1.12
12 | COC(=O)C12OCC34C(CC5C(C)=C(O)C(=O)CC5(C)C3C(O)C1O)OC(=O)C(OC(=O)C=C(C)C(C)C)C24 (centres undefined) | 1.66
13 | CC1(C)CCCC(C)(C)N1 | 2.15
14 | CC(Oc1ccccc1)C(=O)N[C@@H]1C(=O)N2[C@@H]1SC(C)(C)[C@@H]2C(=O)O (some centres undefined) | 2.2
15 | ClC(Cl)(Cl)Sc1ccccc1 | 3.78
16 | C[C@]12CCC(=O)C=C1CC[C@@H]1[C@@H]2C(=O)C[C@@]2(C)[C@H]1CC[C@]2(O)C(=O)CO | 1.47
17 | C=CCOC(C)=O | 0.97
18 | O=C(OCn1ncc2c(=O)[nH]cnc21)c1cccc(CN2CCOCC2)c1 | 1.13
19 | C=C(Br)CC1(C(C)CCC)C(=O)NC(=O)NC1=O (centres undefined) | 2.09
20 | CCc1ccc([N+](=O)[O-])cc1 | 3.03
21 | NS(=O)(=O)c1cc2c(cc1Cl)NC(CC1CCCC1)NS2(=O)=O (centres undefined) | 1.27
22 | CCCC=O | 0.88

Row | Compound | logP
23 | CCC(=O)Nc1ccc(Cl)c(Cl)c1 | 3.07
24 | FC1(F)C(F)(F)C(F)(F)C(F)(F)C(F)(F)C1(F)F | 2.91
25 | NCCCN1CCN(CCCN)CC1 | -1.43
26 | O=C(CCl)Nc1ccccc1 | 1.63
27 | CC(=O)OCc1ccc([N+](=O)[O-])cc1 | 1.73
28 | CC(C)N(N=O)C(C)C | 1.38
29 | C=C(CC(=O)c1ccc(-c2ccccc2Cl)cc1)C(=O)O | 3.32
30 | CCN=C=S | 1.47
31 | C=CC(N)=O | -0.67
32 | COC(=O)c1ccccc1N=NN(C)C | 2.51
33 | c1ccc(C2CO2)cc1 (centres undefined) | 1.61
34 | COCCCc1ccccc1 | 2.7
35 | CCCOc1cc(N)ccc1C(=O)O | 1.53
36 | CNC(=O)Oc1ccccc1C(C)C | 2.31
37 | Oc1ccc(N=C=S)cc1 | 2.74
38 | CCCCCC[N+](=O)[O-] | 2.7
39 | c1ccc2[nH]nnc2c1 | 1.44
40 | NC[C@H](O)c1ccc(O)c(O)c1 | -1.24
41 | CS(=O)CC(=O)C=NO (centres undefined) | -0.72
42 | Cc1cncc(C)c1 | 1.78
43 | Oc1cccc(I)c1 | 2.93
44 | S=C=NCc1ccccc1 | 3.16

Row | Compound | logP
45 | CCC(C)NC(=O)C(=Cc1ccccc1)SC (centres undefined) | 3.03
46 | NC(=O)c1ccc(N)cc1 | -0.41
47 | NC(=O)c1cccnc1 | -0.37
48 | NC(=O)c1cnc2ccccc2c1 | 1.06
49 | C=CCc1ccccc1 | 3.23
50 | CCC(Cl)(CC)C(=O)NC(N)=O | 1.4
51 | CCCCCCC(C)(C)c1ccc(C2CC(O)CCC2CCCCO)c(O)c1 (centres undefined) | 6.68
52 | CCC1COC(Cn2cncn2)(c2ccc(-c3ccccc3)cc2)O1 (centres undefined) | 3.71
53 | CCCCOC(=O)n1cnc(CC(NC(=O)C2CCC(=O)N2)C(=O)N2CCCC2C(N)=O)c1 (centres undefined) | -0.47
54 | COc1ccccc1OC(=O)c1ccc(N)cc1O | 2.88
55 | Oc1ccc(Cl)c2ccccc12 | 3.94
56 | CC(C)C(=O)NC(CO)C(O)c1ccc([N+](=O)[O-])cc1 (centres undefined) | 0.79
57 | O=C(O)c1cccc(O)c1O | 1.2
58 | CCCCNC(N)=O | 0.41
59 | Clc1ccc(Cl)c(Cl)c1Cl | 4.6
60 | CN(C)c1cccnn1 | 0.29
61 | O=C(NN1CCCCCC1)NS(=O)(=O)c1ccc(Cl)cc1 | 1.64
62 | CC(=O)OCC1CCC(n2cnc3c(=O)[nH]cnc32)O1 (centres undefined) | -0.9
63 | CC/C(=C(/CC)c1ccc(O)cc1)c1ccc(O)cc1 | 5.07
64 | CC(C)(C)NC(=O)NO | 0.5

Reference: the OPERA property sets (Mansouri et al. 2018)
